Assay results as given in ChEMBL document CHEMBL1201862, “PubChem BioAssay data set” (2004).
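96-well plates; 48 h exposure; 5 concentrations. Endpoints by linear interpolation between flanking doses. Not reached: highest tested concentration assigned. GI50: concentration for 50% inhibition of growth.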 Activity calls are given as the source filed them. No stated cut-off is given here; in the data, active = GI50 up to about 1.1 µM and inactive = higher.

Tests used:
Assay in all cases: NCI tumour cell line growth inhibition, 48 h
786-0 = test system: 786-0
A549 = test system: A549
ACHN = test system: ACHN
CCRF-CEM = test system: CCRF-CEM
COLO 205 = test system: COLO 205
DU-145 = test system: DU-145
EKVX = test system: EKVX
HCT-116 = test system: HCT-116
HCT-15 = test system: HCT-15
HOP-62 = test system: HOP-62
HT-29 = test system: HT-29
Hs-578T = test system: Hs-578T
IGROV-1 = test system: IGROV-1
K562 = test system: K562
KM12 = test system: KM12
LOX IMVI = test system: LOX IMVI
M14 = test system: M14
MCF7 = test system: MCF7
MDA-MB-435 = test system: MDA-MB-435
MDA-N = test system: MDA-N
MOLT-4 = test system: MOLT-4
NCI-H23 = test system: NCI-H23
NCI-H460 = test system: NCI-H460
NCI-H522 = test system: NCI-H522
NCI/ADR-RES = test system: NCI/ADR-RES
OVCAR-3 = test system: OVCAR-3
OVCAR-5 = test system: OVCAR-5
OVCAR-8 = test system: OVCAR-8
PC-3 = test system: PC-3
RPMI-8226 = test system: RPMI-8226
SF-268 = test system: SF-268
SF-295 = test system: SF-295
SF-539 = test system: SF-539
SK-MEL-28 = test system: SK-MEL-28
SK-MEL-2 = test system: SK-MEL-2
SK-MEL-5 = test system: SK-MEL-5
SN12C = test system: SN12C
SNB-19 = test system: SNB-19
SR = test system: SR
SW-620 = test system: SW-620
T47D = test system: T47D
TK-10 = test system: TK-10
UACC-257 = test system: UACC-257
UACC-62 = test system: UACC-62
UO-31 = test system: UO-31
HCC 2998 = test system: HCC 2998
HOP-92 = test system: HOP-92
NCI-H226 = test system: NCI-H226
SNB-75 = test system: SNB-75
A498 = test system: A498
CAKI-1 = test system: CAKI-1
HL-60 = test system: HL-60
MDA-MB-231 = test system: MDA-MB-231
Malme-3M = test system: Malme-3M
OVCAR-4 = test system: OVCAR-4
RXF 393 = test system: RXF 393
SK-OV-3 = test system: SK-OV-3
U-251 = test system: U-251

## COc1ccccc1C1c2cc3c(cc2OC(N2CCOCC2)C1C)OCO3 (configuration not stated)
786-0
  GI50: 18.9 µM (inactive)
A549
  GI50: 17.3 µM (inactive)
ACHN
  GI50: 26.2 µM (inactive)
CCRF-CEM
  GI50: 13.2 µM (inactive)
COLO 205
  GI50: > 10 µM (inactive)
DU-145
  GI50: 18.5 µM (inactive)
EKVX
  GI50: 20.6 µM (inactive)
HCT-116
  GI50: 12.4 µM (inactive)
HCT-15
  GI50: 16.7 µM
HOP-62
  GI50: 17.8 µM (inactive)
HT-29
  GI50: 16.9 µM (inactive)
Hs-578T
  GI50: 13.2 µM (inactive)
IGROV-1
  GI50: 27.2 µM (inactive)
K562
  GI50: 7.85 µM (inactive)
KM12
  GI50: 16.4 µM (inactive)
LOX IMVI
  GI50: 16.7 µM (inactive)
M14
  GI50: 17.5 µM (inactive)
MCF7
  GI50: 23.6 µM (inactive)
MDA-MB-435
  GI50: 8.04 µM (inactive)
MDA-N
  GI50: 10.5 µM (inactive)
MOLT-4
  GI50: 17.1 µM (inactive)
NCI-H23
  GI50: 19.8 µM (inactive)
NCI-H460
  GI50: 16.6 µM (inactive)
NCI-H522
  GI50: 12.7 µM (inactive)
NCI/ADR-RES
  GI50: 22.9 µM (inactive)
OVCAR-3
  GI50: 13 µM (inactive)
OVCAR-5
  GI50: 16.4 µM (inactive)
OVCAR-8
  GI50: 28.3 µM (inactive)
PC-3
  GI50: 21.5 µM (inactive)
RPMI-8226
  GI50: 16.2 µM (inactive)
SF-268
  GI50: 16.1 µM (inactive)
SF-295
  GI50: 13.5 µM (inactive)
SF-539
  GI50: 14.2 µM (inactive)
SK-MEL-28
  GI50: 15.6 µM (inactive)
SK-MEL-2
  GI50: 17.7 µM (inactive)
SK-MEL-5
  GI50: 15.4 µM (inactive)
SN12C
  GI50: 17.7 µM (inactive)
SNB-19
  GI50: 14 µM (inactive)
SR
  GI50: 15.8 µM (inactive)
SW-620
  GI50: 17.7 µM (inactive)
T47D
  GI50: 13.2 µM (inactive)
TK-10
  GI50: 22 µM (inactive)
UACC-257
  GI50: 15.8 µM (inactive)
UACC-62
  GI50: 14.7 µM (inactive)
UO-31
  GI50: 15.9 µM (inactive)

## O=C1C(Cl)=C(N2CCN(CCOCCO)CC2)C(=O)c2c(O)ccc(O)c21
A549
  GI50: 2.01 µM (inactive)
DU-145
  GI50: 1.82 µM (inactive)
HCC 2998
  GI50: 1.83 µM (inactive)
HCT-15
  GI50: 0.227 µM
HOP-92
  GI50: 0.237 µM (active)
NCI-H226
  GI50: 1.89 µM (inactive)
NCI-H460
  GI50: 1.98 µM (inactive)
OVCAR-5
  GI50: 1.87 µM (inactive)
SF-539
  GI50: 1.75 µM (inactive)
SNB-75
  GI50: 1.6 µM (inactive)
T47D
  GI50: 0.264 µM (active)

## CCNc1ncnc2nn[nH]c12
786-0
  GI50: > 100 µM (inactive)
A498
  GI50: > 100 µM (inactive)
A549
  GI50: > 100 µM (inactive)
ACHN
  GI50: > 100 µM (inactive)
CAKI-1
  GI50: > 100 µM (inactive)
CCRF-CEM
  GI50: > 100 µM (inactive)
COLO 205
  GI50: > 100 µM (inactive)
DU-145
  GI50: > 100 µM (inactive)
EKVX
  GI50: > 100 µM (inactive)
HCC 2998
  GI50: > 100 µM (inactive)
HCT-116
  GI50: > 100 µM (inactive)
HCT-15
  GI50: > 100 µM
HL-60
  GI50: > 100 µM (inactive)
HOP-62
  GI50: > 100 µM (inactive)
HOP-92
  GI50: > 100 µM (inactive)
HT-29
  GI50: > 100 µM (inactive)
IGROV-1
  GI50: > 100 µM (inactive)
K562
  GI50: > 100 µM (inactive)
KM12
  GI50: > 100 µM (inactive)
LOX IMVI
  GI50: > 100 µM (inactive)
M14
  GI50: > 100 µM (inactive)
MCF7
  GI50: > 100 µM (inactive)
MDA-MB-231
  GI50: > 100 µM (inactive)
MDA-MB-435
  GI50: > 100 µM (inactive)
MDA-N
  GI50: > 100 µM (inactive)
MOLT-4
  GI50: > 100 µM (inactive)
Malme-3M
  GI50: > 100 µM (inactive)
NCI-H226
  GI50: > 100 µM (inactive)
NCI-H23
  GI50: > 100 µM (inactive)
NCI-H522
  GI50: > 100 µM (inactive)
NCI/ADR-RES
  GI50: > 100 µM (inactive)
OVCAR-3
  GI50: > 100 µM (inactive)
OVCAR-4
  GI50: > 100 µM (inactive)
OVCAR-8
  GI50: > 100 µM (inactive)
PC-3
  GI50: > 100 µM (inactive)
RPMI-8226
  GI50: > 100 µM (inactive)
RXF 393
  GI50: > 100 µM (inactive)
SF-295
  GI50: > 100 µM (inactive)
SF-539
  GI50: > 100 µM (inactive)
SK-MEL-28
  GI50: > 100 µM (inactive)
SK-MEL-2
  GI50: > 100 µM (inactive)
SK-MEL-5
  GI50: > 100 µM (inactive)
SK-OV-3
  GI50: > 100 µM (inactive)
SN12C
  GI50: > 100 µM (inactive)
SNB-19
  GI50: > 100 µM (inactive)
SNB-75
  GI50: > 100 µM (inactive)
SW-620
  GI50: > 100 µM (inactive)
T47D
  GI50: > 100 µM (inactive)
TK-10
  GI50: > 100 µM (inactive)
U-251
  GI50: > 100 µM (inactive)
UACC-257
  GI50: > 100 µM (inactive)
UACC-62
  GI50: > 100 µM (inactive)
UO-31
  GI50: > 100 µM (inactive)

## NNc1c(C(N)=O)c2c(N)ncnc2n1C1OC(CO)C(O)C1O (configuration not stated)
ACHN
  GI50: 0.0107 µM (active)
COLO 205
  GI50: 0.0129 µM (active)
DU-145
  GI50: < 0.01 µM (active)
EKVX
  GI50: 0.078 µM (active)
HCT-116
  GI50: 0.0119 µM (active)
HCT-15
  GI50: 0.0175 µM
HOP-62
  GI50: 0.0196 µM (active)
HT-29
  GI50: 0.0198 µM (active)
K562
  GI50: 0.0451 µM (active)
LOX IMVI
  GI50: 0.0112 µM (active)
MCF7
  GI50: 0.0171 µM (active)
MDA-MB-231
  GI50: 0.0255 µM (active)
MDA-N
  GI50: 0.0261 µM (active)
NCI-H226
  GI50: 0.0536 µM (active)
SF-295
  GI50: 0.233 µM (active)
SR
  GI50: < 0.01 µM (active)
SW-620
  GI50: < 0.01 µM (active)
T47D
  GI50: < 0.01 µM (active)
